As usually defined, the pIC50 is the IC50 on a negative log10 scale, so that one unit is a factor of ten.

From patent US10428044B2, “3-amino-1,5,6,7-tetrahydro-4H-indol-4-ones” (Bayer Pharma Aktiengesellschaft, priority 2014, dated 2019) come the findings set out here.

pIC50: −log10 of the molar value.

In the experiment the target is (recombinant) catalytic domain of human Bub1 (amino acids 704-1085) (Homo sapiens (Human), UniProt O43683). The experiment is described as follows: Bub1 kinase assay (TR-FRET). In kind it is biochemical. The following applies: ATP 10 μM final, peptide substrate 1 μM final, 60 min at 22° C., read-out: Biological Assay: Bub1 kinase assay median IC50. In short, it runs like this: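 Compounds were serially diluted 1:3.4 from 2 mM DMSO stocks and incubated with the enzyme reaction for 60 min at 22° C. The reaction was stopped with EDTA, and biotinylated peptide phosphorylation was read by TR-FRET using Eu anti-mouse IgG, anti-phosphoserine antibody and streptavidin-XL665. IC50 was fitted by 4-parameter logistic to inhibition normalized to no-inhibitor and no-enzyme controls.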
Sequence of (recombinant) catalytic domain of human Bub1 (amino acids 704-1085) (O43683 704-1085): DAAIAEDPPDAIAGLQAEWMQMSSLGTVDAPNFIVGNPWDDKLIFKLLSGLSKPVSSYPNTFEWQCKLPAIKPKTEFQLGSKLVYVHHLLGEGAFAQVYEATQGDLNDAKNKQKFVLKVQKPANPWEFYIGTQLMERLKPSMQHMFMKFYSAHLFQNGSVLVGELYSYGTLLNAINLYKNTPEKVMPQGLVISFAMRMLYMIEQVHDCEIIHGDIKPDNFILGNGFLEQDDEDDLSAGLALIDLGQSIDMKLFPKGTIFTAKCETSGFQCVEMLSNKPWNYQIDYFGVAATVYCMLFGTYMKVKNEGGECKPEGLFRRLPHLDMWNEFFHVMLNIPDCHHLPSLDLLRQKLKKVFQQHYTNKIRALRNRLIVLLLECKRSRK
For the compound `CNC(=S)Nc1cc(-c2[nH]c3c(c2Nc2ccccc2)C(=O)CCC3)ccn1` [Example 392, 1-methyl-3-{4-[4-oxo-3-(phenylamino)-4,5,6,7-tetrahydro-1H-indol-2-yl]pyridin-2-yl}thiourea], the negative logarithm of the IC50 (pIC50) was 7.06.
In the case of `CC1(C)CC(=O)c2c([nH]c(-c3ccnc(NC(=O)c4cncs4)c3)c2Nc2ccccc2)C1` [Example 480, N-{4-[6,6-dimethyl-4-oxo-3-(phenylamino)-4,5,6,7-tetrahydro-1H-indol-2-yl]pyridin-2-yl}-1,3-thiazole-5-carboxamide] it was 8.20; in that of `O=C(Nc1ccncc1)Nc1cc(-c2[nH]c3c(c2Nc2ccccc2)C(=O)CCC3)ccn1` [Example 385, 1-{4-[4-oxo-3-(phenylamino)-4,5,6,7-tetrahydro-1H-indol-2-yl]pyridin-2-yl}-3-pyridin-4-ylurea], 8.00; in that of `CC1(C)CC(=O)c2c([nH]c(-c3ccncc3)c2Nc2ccccc2Cl)C1` [Example 61, 3-[(2-chlorophenyl)amino]-6,6-dimethyl-2-(pyridin-4-yl)-1,5,6,7-tetrahydro-4H-indol-4-one], 7.16.
In the case of `O=C(O)CNc1cc(-c2[nH]c3c(c2Nc2ccccc2)C(=O)CCC3)ccn1` [Example 369, N-{4-[4-oxo-3-(phenylamino)-4,5,6,7-tetrahydro-1H-indol-2-yl]pyridin-2-yl}glycine], the negative logarithm of the IC50 (pIC50) was 6.44.
In the case of `CCn1c2c(c(Nc3ccccc3)c1-c1ccnc(NC(C)=O)c1)C(=O)CC(C)(C)C2` [Example 187, N-{4-[1-ethyl-6,6-dimethyl-4-oxo-3-(phenylamino)-4,5,6,7-tetrahydro-1H-indol-2-yl]pyridin-2-yl}acetamide] it was 7.28; in that of `Cc1ccc(Nc2c(-c3ccncc3)[nH]c3c2C(=O)CC(C)(C)C3)c(CO)c1` [Example 482, 3-{[2-(hydroxymethyl)-4-methylphenyl]amino}-6,6-dimethyl-2-(pyridin-4-yl)-1,5,6,7-tetrahydro-4H-indol-4-one], 7.91; in that of `CNC(C)(C)C(=O)Nc1cc(-c2[nH]c3c(c2Nc2ccccc2)C(=O)CCC3)ccn1` [Example 306, N^2,2-dimethyl-N-{4-[4-oxo-3-(phenylamino)-4,5,6,7-tetrahydro-1H-indol-2-yl]pyridin-2-yl}alaninamide], 5.40.
On to `CC1(C)CC(=O)c2c([nH]c(-c3ccncc3)c2Nc2ccc(Cl)cc2)C1` [Example 10, 3-[(4-chlorophenyl)amino]-6,6-dimethyl-2-(pyridin-4-yl)-1,5,6,7-tetrahydro-4H-indol-4-one], for which the pIC50 was 7.90.
The same measure for `Cc1ccc(Nc2c(-c3ccncc3)[nH]c3c2C(=O)CC(C)(C)C3)cc1` [Example 54, 6,6-dimethyl-3-[(4-methylphenyl)amino]-2-(pyridin-4-yl)-1,5,6,7-tetrahydro-4H-indol-4-one]: 6.83.
On to `CC(C)C1CC(=O)c2c([nH]c(-c3ccncc3)c2Nc2ccccc2)C1` (centres unmarked) [Example 7, 3-(phenylamino)-6-(propan-2-yl)-2-(pyridin-4-yl)-1,5,6,7-tetrahydro-4H-indol-4-one], for which the pIC50 was 8.25.
The same measure for `CC1(C)CC(=O)c2c([nH]c(-c3ccnc(F)c3)c2Nc2cccc(F)c2)C1` [Example 24, 3-[(3-fluorophenyl)amino]-2-(2-fluoropyridin-4-yl)-6,6-dimethyl-1,5,6,7-tetrahydro-4H-indol-4-one]: 7.69; for `Cn1cc(C(=O)Nc2cc(-c3[nH]c4c(c3Nc3ccccc3)C(=O)CC(C)(C)C4)ccn2)cn1` [Example 506, N-{4-[6,6-dimethyl-4-oxo-3-(phenylamino)-4,5,6,7-tetrahydro-1H-indol-2-yl]pyridin-2-yl}-1-methyl-1H-pyrazole-4-carboxamide]: 8.11.
In the case of `CC1(C)CC(=O)c2c([nH]c(-c3ccncc3)c2Nc2cccc(F)c2CO)C1` [Example 486, 3-{[3-fluoro-2-(hydroxymethyl)phenyl]amino}-6,6-dimethyl-2-(pyridin-4-yl)-1,5,6,7-tetrahydro-4H-indol-4-one] it was 8.46; in that of `CC1(C)CC(=O)c2c([nH]c(-c3ccncc3)c2Nc2ccccc2Oc2ccccc2)C1` [Example 159, 6,6-dimethyl-3-[(2-phenoxyphenyl)amino]-2-(pyridin-4-yl)-1,5,6,7-tetrahydro-4H-indol-4-one], 5.97; in that of `O=C1CC(C(F)(F)F)Cc2[nH]c(-c3ccncc3)c(Nc3ccccc3)c21` (single isomer, unassigned) [Example 440, 3-(phenylamino)-2-(pyridin-4-yl)-6-(trifluoromethyl)-1,5,6,7-tetrahydro-4H-indol-4-one], 7.89.
Regarding `COc1ccc(Nc2c(-c3ccncc3)[nH]c3c2C(=O)CC(C)(C)C3)cc1OC` [Example 58, 3-[(3,4-dimethoxyphenyl)amino]-6,6-dimethyl-2-(pyridin-4-yl)-1,5,6,7-tetrahydro-4H-indol-4-one], the pIC50 was 4.70.
`CC(=O)Nc1cc(-c2[nH]c3c(c2Nc2cccc(F)c2)C(=O)CC(C(C)C)C3)ccn1` (centres unmarked) [Example 319, N-{4-[3-[(3-fluorophenyl)amino]-4-oxo-6-(propan-2-yl)-4,5,6,7-tetrahydro-1H-indol-2-yl]pyridin-2-yl}acetamide]: the pIC50 is 8.06.
Regarding `CC1(C)CC(=O)c2c([nH]c(-c3c(F)cncc3F)c2Nc2ccccc2)C1` [Example 135, 2-(3,5-difluoropyridin-4-yl)-6,6-dimethyl-3-(phenylamino)-1,5,6,7-tetrahydro-4H-indol-4-one], the pIC50 is 6.73.
For the compound `CC1(C)CC(=O)c2c([nH]c(-c3ccncc3)c2Nc2cccc(-c3ccccc3)n2)C1` [Example 423, 6,6-dimethyl-3-[(6-phenylpyridin-2-yl)amino]-2-(pyridin-4-yl)-1,5,6,7-tetrahydro-4H-indol-4-one], the negative-log IC50 (pIC50) is 7.57.
On to `O=C(Cc1cscn1)Nc1cc(-c2[nH]c3c(c2Nc2ccccc2)C(=O)CCC3)ccn1` [Example 287, N-{4-[4-oxo-3-(phenylamino)-4,5,6,7-tetrahydro-1H-indol-2-yl]pyridin-2-yl}-2-(1,3-thiazol-4-yl)acetamide], for which the pIC50 is 7.32.
Turning to `N#Cc1cnccc1-c1[nH]c2c(c1Nc1ccccc1)C(=O)CCC2` [Example 197, 4-[4-oxo-3-(phenylamino)-4,5,6,7-tetrahydro-1H-indol-2-yl]pyridine-3-carbonitrile], the negative-log IC50 (pIC50) is below 4.70.
For `O=C(COc1cccc(F)c1)Nc1cc(-c2[nH]c3c(c2Nc2ccccc2)C(=O)CCC3)ccn1` [Example 338, 2-(3-fluorophenoxy)-N-{4-[4-oxo-3-(phenylamino)-4,5,6,7-tetrahydro-1H-indol-2-yl]pyridin-2-yl}acetamide], the pIC50 was 7.50.
In the case of `O=C(NCc1ccco1)Nc1cc(-c2[nH]c3c(c2Nc2ccccc2)C(=O)CCC3)ccn1` [Example 384, 1-(furan-2-ylmethyl)-3-{4-[4-oxo-3-(phenylamino)-4,5,6,7-tetrahydro-1H-indol-2-yl]pyridin-2-yl}urea] it was 6.95; in that of `O=C(Nc1cc(-c2[nH]c3c(c2Nc2ccccc2)C(=O)CCC3)ccn1)c1cocn1` [Example 278, N-{4-[4-oxo-3-(phenylamino)-4,5,6,7-tetrahydro-1H-indol-2-yl]pyridin-2-yl}-1,3-oxazole-4-carboxamide], 7.90; in that of `CCCC(=O)Nc1cc(-c2[nH]c3c(c2Nc2ccccc2)C(=O)CCC3)ccn1` [Example 226, N-{4-[4-oxo-3-(phenylamino)-4,5,6,7-tetrahydro-1H-indol-2-yl]pyridin-2-yl}butanamide], 7.69.
The same measure for `CC1(C)CC(=O)c2c([nH]c(-c3ccncc3C(F)(F)F)c2Nc2ccccc2)C1` [Example 438, 6,6-dimethyl-3-(phenylamino)-2-[3-(trifluoromethyl)pyridin-4-yl]-1,5,6,7-tetrahydro-4H-indol-4-one]: 6.46.
In the case of `COC(C)C(=O)Nc1cc(-c2[nH]c3c(c2Nc2ccccc2)C(=O)CCC3)ccn1` (centres unmarked) [Example 329] it was 7.18.
Consider `CC1(C)CC(=O)c2c([nH]c(-c3ccncc3)c2Nc2ccc3ccccc3c2)C1` [Example 158, 6,6-dimethyl-3-(naphthalen-2-ylamino)-2-(pyridin-4-yl)-1,5,6,7-tetrahydro-4H-indol-4-one], for which the pIC50 was 7.02.
In the case of `O=C(Cc1cc[nH]c1)Nc1cc(-c2[nH]c3c(c2Nc2ccccc2)C(=O)CCC3)ccn1` [Example 286, N-{4-[4-oxo-3-(phenylamino)-4,5,6,7-tetrahydro-1H-indol-2-yl]pyridin-2-yl}-2-(1H-pyrrol-3-yl)acetamide] it was 7.67.
Regarding `O=C(Nc1cc(-c2[nH]c3c(c2Nc2ccccc2)C(=O)CCC3)ccn1)c1cccc(F)c1` [Example 265, 3-fluoro-N-{4-[4-oxo-3-(phenylamino)-4,5,6,7-tetrahydro-1H-indol-2-yl]pyridin-2-yl}benzamide], the pIC50 is 7.72.
On to `CC1(C)CC(=O)c2c([nH]c(-c3ccncc3)c2Nc2cccc(Cc3ccccc3)c2)C1` [Example 415, 3-[(3-benzylphenyl)amino]-6,6-dimethyl-2-(pyridin-4-yl)-1,5,6,7-tetrahydro-4H-indol-4-one], for which the negative-log IC50 (pIC50) was 6.55.
In the case of `Nc1cc(-c2[nH]c3c(c2Nc2ccc(F)cc2)C(=O)CCC3)ccn1` [Example 211, 2-(2-aminopyridin-4-yl)-3-[(4-fluorophenyl)amino]-1,5,6,7-tetrahydro-4H-indol-4-one] it was 6.94; in that of `O=C(Cc1ccsc1)Nc1cc(-c2[nH]c3c(c2Nc2ccccc2)C(=O)CCC3)ccn1` [Example 291, N-{4-[4-oxo-3-(phenylamino)-4,5,6,7-tetrahydro-1H-indol-2-yl]pyridin-2-yl}-2-(thiophen-3-yl)acetamide], 7.54.
`N#CC1(C(=O)Nc2cc(-c3[nH]c4c(c3Nc3ccccc3)C(=O)CCC4)ccn2)CC1` [Example 246, 1-cyano-N-{4-[4-oxo-3-(phenylamino)-4,5,6,7-tetrahydro-1H-indol-2-yl]pyridin-2-yl}cyclopropanecarboxamide]: the pIC50 was 7.22.
